Values after ≈ are worked out from the molar mass of the structure shown. Values belong to the compound of their own block, whether it stands above or below them.
Assays:
[1] = tested on: Blood; experiment: Suppression of IL2 production in human whole blood after 24 hrs by ELISA
[2] = Aqueous solubility of the compound; type: physicochemical; settings: water
[3] = tested on: PBMC; experiment: Suppression of IL2 production in human PBMC after 24 hrs by ELISA
[4] = biological target: Tyrosine-protein kinase SYK (Homo sapiens, UniProt P43405)
[5] = biological target: Protein kinase C beta type (Homo sapiens, UniProt P05771)
Protein kinase C beta type, sequence (P05771 whole entry): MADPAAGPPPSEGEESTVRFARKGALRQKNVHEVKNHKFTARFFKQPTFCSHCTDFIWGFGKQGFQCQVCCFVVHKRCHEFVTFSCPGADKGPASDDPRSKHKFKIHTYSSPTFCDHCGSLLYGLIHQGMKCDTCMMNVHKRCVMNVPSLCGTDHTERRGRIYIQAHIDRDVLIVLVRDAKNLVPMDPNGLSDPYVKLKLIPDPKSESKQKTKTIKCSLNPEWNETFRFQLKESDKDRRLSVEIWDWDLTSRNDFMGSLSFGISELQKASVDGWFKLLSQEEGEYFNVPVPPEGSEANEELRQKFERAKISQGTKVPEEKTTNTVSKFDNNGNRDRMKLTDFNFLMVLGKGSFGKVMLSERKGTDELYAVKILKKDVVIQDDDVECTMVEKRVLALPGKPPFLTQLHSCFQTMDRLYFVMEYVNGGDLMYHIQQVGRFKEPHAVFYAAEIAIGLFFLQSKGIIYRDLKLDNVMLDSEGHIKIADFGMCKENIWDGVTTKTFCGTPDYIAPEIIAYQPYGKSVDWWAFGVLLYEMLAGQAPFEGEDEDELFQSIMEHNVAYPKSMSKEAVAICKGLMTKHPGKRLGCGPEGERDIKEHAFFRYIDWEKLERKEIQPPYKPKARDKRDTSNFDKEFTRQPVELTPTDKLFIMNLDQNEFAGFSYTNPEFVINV

[6] = biological target: Tyrosine-protein kinase Lck (Homo sapiens, UniProt P06239)
Tyrosine-protein kinase Lck, sequence (P06239 whole entry): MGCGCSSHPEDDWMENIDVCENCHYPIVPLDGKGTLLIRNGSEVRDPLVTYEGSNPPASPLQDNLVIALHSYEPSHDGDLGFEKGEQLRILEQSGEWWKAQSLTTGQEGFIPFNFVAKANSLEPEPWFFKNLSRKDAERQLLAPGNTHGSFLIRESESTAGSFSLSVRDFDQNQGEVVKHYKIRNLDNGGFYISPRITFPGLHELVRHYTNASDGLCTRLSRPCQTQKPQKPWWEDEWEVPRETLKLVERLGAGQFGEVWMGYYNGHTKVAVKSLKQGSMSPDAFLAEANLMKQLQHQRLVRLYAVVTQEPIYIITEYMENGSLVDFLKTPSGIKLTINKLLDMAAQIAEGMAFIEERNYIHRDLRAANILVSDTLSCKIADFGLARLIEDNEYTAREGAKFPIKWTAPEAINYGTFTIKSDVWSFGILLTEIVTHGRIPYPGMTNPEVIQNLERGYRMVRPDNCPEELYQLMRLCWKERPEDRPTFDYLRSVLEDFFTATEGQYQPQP

[7] = biological target: T1, Tyrosine-protein kinase ZAP-70 (Homo sapiens, UniProt P43403); experiment: Inhibition of human ZAP70
T1 sequence (P43403 whole entry): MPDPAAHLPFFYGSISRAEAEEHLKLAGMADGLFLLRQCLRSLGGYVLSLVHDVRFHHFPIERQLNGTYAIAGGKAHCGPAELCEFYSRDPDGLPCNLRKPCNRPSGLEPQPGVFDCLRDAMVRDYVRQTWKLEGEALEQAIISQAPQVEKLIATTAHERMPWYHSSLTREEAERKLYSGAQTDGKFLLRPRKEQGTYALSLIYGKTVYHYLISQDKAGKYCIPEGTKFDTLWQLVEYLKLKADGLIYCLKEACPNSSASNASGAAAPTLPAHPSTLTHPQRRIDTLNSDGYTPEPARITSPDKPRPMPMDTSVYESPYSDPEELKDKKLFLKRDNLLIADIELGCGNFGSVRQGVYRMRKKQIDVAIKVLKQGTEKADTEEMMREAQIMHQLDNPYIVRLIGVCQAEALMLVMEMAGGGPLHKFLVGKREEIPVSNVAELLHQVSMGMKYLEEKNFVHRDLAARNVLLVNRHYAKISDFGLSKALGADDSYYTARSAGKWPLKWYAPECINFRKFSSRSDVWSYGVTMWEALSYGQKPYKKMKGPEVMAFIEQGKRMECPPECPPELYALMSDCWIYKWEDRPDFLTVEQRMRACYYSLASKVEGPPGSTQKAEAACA

SMILES: COc1cc(Nc2nc(N[C@H]3CCCC[C@H]3N)n3nc(-c4ccccc4Cl)nc3c2C(N)=O)cc(OC)c1 (relative stereo)
- IC50 [3]: 1760 nM
- IC50 [4]: 50 nM

SMILES: COc1cc(Nc2nc(N[C@H]3CCCC[C@H]3N)n3ncnc3c2C(N)=O)cc(OC)c1 (relative stereo)
- IC50 [5]: 2660 nM
- IC50 [6]: 590 nM
- solubility [2]: 42 µg/mL (≈ 98.5 µM)
- IC50 [4]: 4 nM
- IC50 [7]: 330 nM

SMILES: COc1cc(Nc2nc(N[C@H]3CCCC[C@H]3N)n3cnnc3c2C(N)=O)cc(OC)c1 (relative stereo)
- IC50 [5]: 680 nM
- IC50 [6]: 180 nM
- solubility [2]: 351 µg/mL (≈ 823 µM)
- IC50 [4]: 9 nM
- IC50 [7]: 120 nM

SMILES: COc1cc(Nc2nc(N[C@H]3CCCC[C@H]3N)n3nc(-c4cccc(OC)c4)nc3c2C(N)=O)cc(OC)c1 (relative stereo)
- IC50 [4]: 120 nM

More lines, main results first:

- IC50 [1]: 2000 nM
- solubility [2]: 1.2 µg/mL (≈ 2.39 µM)
- IC50 [4]: 83 nM
SMILES: COc1cc(Nc2nc(N[C@H]3CCCC[C@H]3N)n3nc(-c4ccccc4)nc3c2C(N)=O)cc(OC)c1 (relative stereo)
- IC50 [3]: 210 nM

- IC50 [4]: 7700 nM
SMILES: COc1cc(Nc2nc(NCCCN)n3cnnc3c2C(N)=O)cc(OC)c1

- IC50 [4]: 6100 nM
SMILES: COc1cc(Nc2nc(NCCO)n3cnnc3c2C(N)=O)cc(OC)c1

- IC50 [4]: 9 nM
SMILES: COc1cc(Nc2nc(NCCN)n3cnnc3c2C(N)=O)cc(OC)c1

- IC50 [4]: 15200 nM
SMILES: COc1cc(Nc2nc(N[C@H]3CCCC[C@H]3N)n3c(-c4ccccc4)nnc3c2C(N)=O)cc(OC)c1 (relative stereo)

- IC50 [4]: 79100 nM
SMILES: COc1cc(Nc2nc(NCC(=O)OC(C)(C)C)n3cnnc3c2C(N)=O)cc(OC)c1

- IC50 [4]: 150 nM
SMILES: COc1cc(Nc2nc(NCC(C)(C)N)n3cnnc3c2C(N)=O)cc(OC)c1

From ChEMBL document CHEMBL1155791, “A novel Syk family kinase inhibitor: design, synthesis, and structure-activity relationship of 1,2,4-triazolo[4,3-c]pyrimidine and 1,2,4-triazolo[1,5-c]pyrimidine derivatives” (Bioorg Med Chem, 2008)
